From patent US11395816B2, “Corroles for treating human cytomegalovirus infections” (UNIVERSITE DE BOURGOGNE, priority 2017, dated 2022)
Read-outs that look alike come from different tables or passages of the source.

Tests used:
[1] = Toxicity assessment (cytotoxicity) on ARPE-19 cells; format: cell-based, human; details: human; ARPE-19 cells, 6 days of treatment, 0.1-50 μM tested
Description: (§1) hCMV infection was carried out on ARPE-19 cells seeded in 96 wells plate, in duplicate at one or two MOI (multiplicity of infection) and 7 concentrations of FNO2Cor, TPFCor, TpNO2Cor. • D0: MRC5/ARPE-19 cells seeded at 6 k per well in Corning Glass Bottom 96 well plates in 200 μL of DMEM without phenol red. • D1: cells were treated with FNO2Cor, TpNO2Cor, TPFCor (from 50 to 0.1 μM by two fold dilutions) in duplicate for the toxicity study. • D3: ARPE-19 cells were treated with Ganciclovir, FNO2Cor, TpNO2Cor, TPFCor (from 5 to 0.07 μM or from 10 to 0.15 μM by two fold dilutions) and were infected at different MOI in duplicate: MOI 10 or 2 for ARPE-19 cells. • D7: ARPE-19 cells at MOI 10 4 d post-infection were fixed with Formalin 10 min at room temperature. Cells were washed with 200 μL PBS and 100 μL PBS/Hoechst® 33342 ( 1/1000) per well. 96 well plates were kept at 4° C. in the dark until data acquisition Image acquisition and analysis for high content quantification was performed on a Thermo Cellomics Arrayscan™ VTI microscope using a modified compartmental analysis algorithm. • D13: ARPE19 cells at MOI 2 10 days post-infection were fixed and image acquisition and analysis were performed as previously described.
(§2) The toxicity of compounds FNO2Cor or TPFCor on ARPE-19 cells was evaluated after 6 days of treatment. 10 concentrations (50, 25, 12.5, 6.25, 3.1, 1.5, 0.75, 0.5, 0.25, 0.1 μM) of FNO2Cor and TPFCor were studied. The compound TpNO2Cor was used as positive control. Cell culture without treatment was used as negative control.
(§3) Cytotoxicity of compounds FNO2Cor, TPFCor and TpNO2Cor were assessed at different concentrations on ARPE-19 cells according to the method described on section 1.3. TpNO2Cor worked as positive reference.

[2] = tested on: ARPE-19 cells; assay: as above; format: cell-based, human; details: for cytotoxicity (in words): ARPE-19 human retinal pigmented epithelium cells, FIG. 1 and Table I
Description: as §1, §2, §3

[3] = tested on: hCMV; assay: hCMV infection assay in ARPE-19 cells (infection level and DNA replication by high content microscopy); format: cell-based, human cytomegalovirus
Description: ARPE-19 human retinal pigmented epithelium cells were used for hCMV infection assay.
Cells were grown in DMEM without phenol red (Sigma-Aldrich) 10% SVF, Pen-strep, 1× sodium pyruvate, 1× Glutamax.
as §1
On 4 d and 10 d post-infection (2 post-infection times), data acquisition per virus and cell line was done by high content microscopy to calculate infection level and DNA replication according to compound concentration.
Compounds FNO2Cor, TPFCor, TpNO2Cor and anti-hCMV drug Ganciclovir were assessed at 8 different concentrations in ARPE-19 cell culture on 4 days post-infection (FIGS. 2A, 2B) or on 10 days post-infection (FIGS. 3A, 3B) to evaluate their activity for inhibiting hCMV infection and their capacity for inhibiting hCMV replication in ARPE-19 cells.

[4] = already known, Gros et al., 2015; cited from earlier work
[5] = Human betaherpesvirus 5, ARPE-19, 96 h, read-out: IC50 ARPE (infection inhibition)
[6] = Human betaherpesvirus 5, ARPE-19, 96 h, read-out: IC50 ARPE (replication inhibition)
[7] = Human betaherpesvirus 5, ARPE-19, 240 h, read-out: IC50 ARPE (infection inhibition)
[8] = Human betaherpesvirus 5, ARPE-19, 240 h, read-out: IC50 ARPE (replication inhibition)
[9] = Table V, head prints 4 d PI, text says 10 d PI

| IC50 ([3]; 4 d PI, MOI 10, ARPE-19 cells, read-out: IC50 ARPE (infection inhibition)) [µM] | IC50 ([3]; 4 d PI, MOI 10, ARPE-19 cells, read-out: IC50 ARPE (replication inhibition)) [µM] | IC50 ([3]; 10 d PI, MOI 2, ARPE-19 cells, read-out: IC50 ARPE (infection inhibition)) [µM] | Compound | CC50 at 6 days [1] [µM] | cytotoxicity (in words) [2] | Selectivity index (infection inhibition) ([3]; 4 d PI, Table III) | Selectivity index (replication inhibition) ([3]; 4 d PI, Table III) | IC50 [3, 5] [µM] | IC50 [3, 6] [µM] | IC50 [3, 7] [µM] | IC50 [3, 8] [µM] | Selectivity index (infection inhibition) [3, 9] | Selectivity index (replication inhibition) [3, 9] | CC50 [2] [µM] | cytotoxicity (in words) [4] |
| --- | --- | --- | --- | --- | --- | --- | --- | --- | --- | --- | --- | --- | --- | --- | --- |
| – | – | – | Fc1c(F)c(F)c(-c2c3nc(c4ccc([nH]4)c(-c4c(F)c(F)c(F)c(F)c4F)c4ccc([nH]4)c(-c4c(F)c(F)c(F)c(F)c4F)c4ccc2[nH]4)C=C3)c(F)c1F [TPFCor, 5,10,15-Tris(pentafluorophenyl)corrole] | 26.1 | safe | 7.38 | 16.28 | 3.53 | 1.6 | 0.96 | 12.3 | 27.04 | 2.12 | – | – |
| 3.98 | 8.34 | 1.79 | O=[N+]([O-])c1ccc(-c2c3nc(c4ccc([nH]4)c(-c4ccc([N+](=O)[O-])cc4)c4ccc([nH]4)c(-c4ccc([N+](=O)[O-])cc4)c4ccc2[nH]4)C=C3)cc1 [TpNO2Cor, 5,10,15-Tris(4-nitrophenyl)corrole, reference compound] | – | – | – | – | – | – | – | – | – | – | 25 | not cytotoxic |
| – | – | – | O=[N+]([O-])c1ccc(F)c(-c2c3nc(c4ccc([nH]4)c(-c4cc([N+](=O)[O-])ccc4F)c4ccc([nH]4)c(-c4cc([N+](=O)[O-])ccc4F)c4ccc2[nH]4)C=C3)c1 [FNO2Cor, 5,10,15-Tris(2-fluoro-5-nitrophenyl)corrole] | 50 | safe | 21.05 | 8.45 | 2.38 | 5.92 | 1.25 | 11.8 | 39.94 | 4.24 | – | – |
